Measured values published in patent US6423689B1, “Peptidyl calcium channel blockers” (Warner-Lambert Company, priority 1997, dated 2002).

Target: T1, N-type Ca2+ channels in IMR-32 cells (Homo sapiens, UniProt Q00975)
T1 construct: host or cells: IMR-32 cells, differentiated with dibutyryl cAMP and bromodeoxyuridine
Experiment: Inhibition of N-type calcium flux in IMR-32 cells (Indo-1 fluorescence, nitrendipine present)
Assay type: cell-based
Conditions: for IC50: IMR-32 cells, 5 μM nitrendipine, K+ depolarization; for inhibition at 1 µM / inhibition at 10 µM: IMR-32
Summary of the method: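 Differentiated IMR-32 cells (7–13 days) were loaded with 5 μM Indo-1 AM, preincubated with compound for 10 min at 30° C, and depolarized with KCl/CaCl2 stimulation solution, with 5 μM nitrendipine blocking L-channels. Peak-minus-basal 400/490 nm emission ratio was plotted against drug concentration, and IC50 came from four-parameter logistic fits.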

T1 sequence (Q00975 whole entry): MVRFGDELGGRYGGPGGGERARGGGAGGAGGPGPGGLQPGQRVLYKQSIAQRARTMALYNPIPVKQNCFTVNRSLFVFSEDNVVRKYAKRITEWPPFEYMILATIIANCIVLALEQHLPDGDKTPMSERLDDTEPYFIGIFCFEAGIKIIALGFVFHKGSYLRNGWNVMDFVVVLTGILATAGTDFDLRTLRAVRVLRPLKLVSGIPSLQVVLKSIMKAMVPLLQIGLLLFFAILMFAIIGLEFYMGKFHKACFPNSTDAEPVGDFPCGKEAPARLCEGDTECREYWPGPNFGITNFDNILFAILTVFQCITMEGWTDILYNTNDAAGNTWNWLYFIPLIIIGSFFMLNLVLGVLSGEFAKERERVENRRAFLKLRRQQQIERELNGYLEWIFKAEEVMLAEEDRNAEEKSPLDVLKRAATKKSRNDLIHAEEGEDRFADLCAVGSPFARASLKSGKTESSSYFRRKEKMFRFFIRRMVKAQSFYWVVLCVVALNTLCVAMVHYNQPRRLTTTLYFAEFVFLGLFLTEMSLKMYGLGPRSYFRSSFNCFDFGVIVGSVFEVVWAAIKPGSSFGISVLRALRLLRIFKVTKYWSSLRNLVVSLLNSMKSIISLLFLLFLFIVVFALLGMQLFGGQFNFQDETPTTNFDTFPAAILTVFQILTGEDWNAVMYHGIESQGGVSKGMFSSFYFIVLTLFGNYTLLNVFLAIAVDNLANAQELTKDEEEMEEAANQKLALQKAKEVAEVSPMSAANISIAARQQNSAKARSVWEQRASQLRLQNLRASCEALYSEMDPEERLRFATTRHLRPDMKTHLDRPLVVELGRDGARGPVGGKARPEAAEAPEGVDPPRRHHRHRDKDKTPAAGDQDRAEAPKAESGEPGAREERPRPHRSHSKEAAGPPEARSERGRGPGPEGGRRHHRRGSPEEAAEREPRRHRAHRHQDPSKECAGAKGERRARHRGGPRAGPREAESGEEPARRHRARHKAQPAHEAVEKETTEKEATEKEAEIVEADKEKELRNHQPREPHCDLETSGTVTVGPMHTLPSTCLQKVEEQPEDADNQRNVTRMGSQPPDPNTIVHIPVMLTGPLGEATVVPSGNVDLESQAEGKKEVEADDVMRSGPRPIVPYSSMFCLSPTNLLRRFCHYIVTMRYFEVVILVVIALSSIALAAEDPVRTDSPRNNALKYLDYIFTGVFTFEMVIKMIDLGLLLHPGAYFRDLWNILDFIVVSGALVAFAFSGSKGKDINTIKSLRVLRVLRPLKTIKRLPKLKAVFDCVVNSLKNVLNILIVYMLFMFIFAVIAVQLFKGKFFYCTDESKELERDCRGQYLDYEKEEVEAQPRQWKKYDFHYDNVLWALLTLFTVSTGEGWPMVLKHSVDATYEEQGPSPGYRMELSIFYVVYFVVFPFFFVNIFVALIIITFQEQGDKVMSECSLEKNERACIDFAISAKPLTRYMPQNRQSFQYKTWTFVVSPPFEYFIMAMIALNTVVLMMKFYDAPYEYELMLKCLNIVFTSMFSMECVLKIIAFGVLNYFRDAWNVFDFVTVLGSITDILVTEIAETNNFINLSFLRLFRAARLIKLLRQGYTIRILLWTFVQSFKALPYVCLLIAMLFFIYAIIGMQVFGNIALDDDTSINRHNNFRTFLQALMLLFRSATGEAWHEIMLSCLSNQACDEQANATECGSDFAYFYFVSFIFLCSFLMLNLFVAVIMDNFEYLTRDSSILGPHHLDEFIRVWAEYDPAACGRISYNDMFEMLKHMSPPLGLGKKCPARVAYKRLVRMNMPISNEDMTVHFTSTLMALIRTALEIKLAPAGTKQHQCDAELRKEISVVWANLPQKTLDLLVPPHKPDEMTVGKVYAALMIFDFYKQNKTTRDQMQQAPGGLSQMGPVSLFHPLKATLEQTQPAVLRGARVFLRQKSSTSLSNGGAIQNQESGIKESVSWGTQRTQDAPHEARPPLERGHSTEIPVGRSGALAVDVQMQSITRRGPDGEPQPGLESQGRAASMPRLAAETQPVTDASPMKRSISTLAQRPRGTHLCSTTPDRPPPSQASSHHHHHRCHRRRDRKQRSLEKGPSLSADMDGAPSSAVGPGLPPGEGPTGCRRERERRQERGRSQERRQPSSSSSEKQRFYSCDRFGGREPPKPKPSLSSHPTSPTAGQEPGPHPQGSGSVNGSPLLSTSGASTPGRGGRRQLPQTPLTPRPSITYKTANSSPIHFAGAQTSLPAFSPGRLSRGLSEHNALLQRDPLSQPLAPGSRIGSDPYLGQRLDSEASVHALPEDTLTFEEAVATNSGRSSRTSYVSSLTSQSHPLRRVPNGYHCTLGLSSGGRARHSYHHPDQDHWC
T1 sequence (P54289 25-956 partner limits assumed): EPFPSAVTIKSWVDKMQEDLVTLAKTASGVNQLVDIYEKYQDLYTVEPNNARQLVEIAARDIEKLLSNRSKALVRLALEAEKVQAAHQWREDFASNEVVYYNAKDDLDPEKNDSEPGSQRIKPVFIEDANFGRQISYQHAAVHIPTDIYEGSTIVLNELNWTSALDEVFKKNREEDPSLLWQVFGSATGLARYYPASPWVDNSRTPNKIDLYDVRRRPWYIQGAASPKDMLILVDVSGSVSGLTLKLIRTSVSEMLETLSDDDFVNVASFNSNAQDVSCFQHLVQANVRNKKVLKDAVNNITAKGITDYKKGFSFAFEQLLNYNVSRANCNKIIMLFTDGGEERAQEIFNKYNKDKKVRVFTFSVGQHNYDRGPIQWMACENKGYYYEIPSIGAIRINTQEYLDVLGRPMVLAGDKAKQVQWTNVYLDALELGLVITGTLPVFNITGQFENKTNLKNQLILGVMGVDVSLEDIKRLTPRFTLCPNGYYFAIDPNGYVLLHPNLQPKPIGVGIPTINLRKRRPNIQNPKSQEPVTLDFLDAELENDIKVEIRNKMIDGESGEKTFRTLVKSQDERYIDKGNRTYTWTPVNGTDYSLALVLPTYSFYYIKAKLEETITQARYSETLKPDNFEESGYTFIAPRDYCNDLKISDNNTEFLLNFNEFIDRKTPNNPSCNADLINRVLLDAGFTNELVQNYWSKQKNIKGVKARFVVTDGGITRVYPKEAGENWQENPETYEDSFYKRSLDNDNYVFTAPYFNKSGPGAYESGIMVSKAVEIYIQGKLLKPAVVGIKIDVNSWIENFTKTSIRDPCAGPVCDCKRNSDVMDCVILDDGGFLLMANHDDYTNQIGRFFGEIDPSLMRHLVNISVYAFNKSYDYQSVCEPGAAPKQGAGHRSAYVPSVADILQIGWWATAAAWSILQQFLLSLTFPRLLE
T1 sequence (P54289 957-1103 partner limits assumed): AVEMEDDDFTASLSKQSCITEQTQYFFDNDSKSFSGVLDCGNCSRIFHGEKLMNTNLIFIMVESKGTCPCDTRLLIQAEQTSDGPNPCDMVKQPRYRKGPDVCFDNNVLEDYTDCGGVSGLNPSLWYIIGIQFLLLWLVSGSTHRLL
T1 sequence (P54284 whole entry partner): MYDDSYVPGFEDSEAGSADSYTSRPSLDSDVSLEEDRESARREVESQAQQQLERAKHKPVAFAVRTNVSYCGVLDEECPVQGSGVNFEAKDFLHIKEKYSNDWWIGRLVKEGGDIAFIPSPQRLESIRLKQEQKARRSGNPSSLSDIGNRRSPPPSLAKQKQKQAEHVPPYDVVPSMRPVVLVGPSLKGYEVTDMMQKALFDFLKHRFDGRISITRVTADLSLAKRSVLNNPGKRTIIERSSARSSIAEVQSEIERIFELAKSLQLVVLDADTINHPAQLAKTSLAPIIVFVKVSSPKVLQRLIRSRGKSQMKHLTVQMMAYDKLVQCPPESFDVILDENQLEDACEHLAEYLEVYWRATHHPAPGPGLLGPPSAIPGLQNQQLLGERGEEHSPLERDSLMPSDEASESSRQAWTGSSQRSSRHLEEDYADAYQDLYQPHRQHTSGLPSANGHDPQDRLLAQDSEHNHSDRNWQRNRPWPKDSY

CC(C)CC(NC(=O)N1CCCCCC1)C(=O)NC(Cc1ccc(OCc2ccccc2)cc1)C(=O)NCC(O)c1ccccc1 (centres unmarked) [Example 190, Azepane-1-carboxylic acid {1-[2-(4-benzyloxy-phenyl)-1-(2-hydroxy-2phenyl-ethylcarbamoyl)-ethylcarbamoyl]-3-methyl-butyl}-amide]
IC50: 790 nM

CC(C)C[C@H](NC(=O)c1cnc2ccccc2n1)C(=O)N[C@@H](Cc1ccc(OCc2ccccc2)cc1)C(=O)OC(C)(C)C (relative stereo) [Example 126, [S-(R*,R*)]-3-(4-Benzyloxy-phenyl)-2-{4-methyl-2-[(quinoxaline-2-carbonyl)-amino]pentanoylamino}-propionic acid tert-butyl ester]
Inhibition of Calcium Flux in IMR-32 Cells % Inhibition at 10 μM: 28%

CC(C)C[C@H](NC(=O)N1CCCCCC1)C(=O)N[C@@H](Cc1ccc(OCc2ccccc2)cc1)C(=O)NCC1CCCCC1 [Example 205, [S-(R*,R*)]-Azepane-1-carboxylic acid {1-[2-(4-benzyloxy-phenyl)-1-(cyclohexylmethyl-carbamoyl)-ethylcarbamoyl]-3-methyl-butyl}-amide]
inhibition at 1 µM: 36% | inhibition at 10 µM: 72% | IC50: 2400 nM

Cc1ccccc1S(=O)(=O)N[C@@H](CC(C)C)C(=O)N[C@@H](Cc1ccc(OCc2ccccc2)cc1)C(=O)OC(C)(C)C (relative stereo) [Example 105, [S-(R*,R*)]-3-(4-Benzyloxy-phenyl)-2-[4-methyl-2-(toluene-2-sulfonylamino)-pentanoylamino]-propionic acid tert-butyl ester]
Inhibition of Calcium Flux in IMR-32 Cells % Inhibition at 1 μM: 29%

CC(C)C[C@H](NC(=O)c1ccc(F)cc1)C(=O)N[C@@H](Cc1ccc(OCc2ccccc2)cc1)C(=O)OC(C)(C)C (relative stereo) [Example 94, [S-(R*,R*)]-3-(4-Benzyloxy-phenyl)-2-[2-(4-fluoro-benzoylamino)-4-methyl-pentanoylamino]-propionic acid tert-butyl ester]
Inhibition of Calcium Flux in IMR-32 Cells % Inhibition at 1 μM: 29%

CC(C)C[C@H](NC(=O)N1CCCCCC1)C(=O)N[C@@H](Cc1ccc(OCc2ccccc2)cc1)C(=O)Nc1ccc(CCO)cc1 [Example 211, [S-(R*,R*)]-Azepane-1-carboxylic acid (1-{2-(4-benzyloxy-phenyl)-1-[4-(2-hydroxy-ethyl)-phenylcarbamoyl]-ethylcarbamoyl}-3-methyl-butyl)-amide]
inhibition at 1 µM: 49% | inhibition at 10 µM: 81% | IC50: 1100 nM

CC(C)C[C@H](NC(=O)Nc1ccccc1Cl)C(=O)N[C@@H](Cc1ccc(OCc2ccccc2)cc1)C(=O)OC(C)(C)C (relative stereo) [Example 73, [S-(R*,R*)]-3-(4-Benzyloxy-phenyl)-2-{2-[3-(2-chloro-phenyl)-ureido]-4-methylpentanoylamino}-propionic acid tert-butyl ester]
Inhibition of Calcium Flux in IMR-32 Cells % Inhibition at 1 μM: 60%

CC(C)C[C@H](NC(=O)N1CCCCCC1)C(=O)N[C@@H](Cc1ccc(OCc2ccccc2)cc1)C(=O)OCc1ccccc1 (relative stereo) [Example 14, [S-(R*,R*)]-2-{2-[(Azepane-1-carbonyl)-amino]-4-methyl-pentanoylamino}-3-(4-benzyloxy-phenyl)-propionic acid benzyl ester]
Inhibition of Calcium Flux in IMR-32 Cells % Inhibition at 1 μM: 45%

CC(C)C[C@H](NC(=O)N1CCCCCC1)C(=O)N[C@@H](Cc1ccc(OCc2c(Cl)cccc2Cl)cc1)C(=O)NC(C)(C)C (relative stereo) [Example 52, [S-(R*,R*)]-Azepane-1-carboxylic acid (1-{1-tert-butylcarbamoyl-2-[4-(2,6-dichloro-benzyloxy)-phenyl]-ethylcarbamoyl}-3-methyl-butyl)-amide]
Inhibition of Calcium Flux in IMR-32 Cells % Inhibition at 1 μM: 56% | Inhibition of Calcium Flux in IMR-32 Cells % Inhibition at 10 μM: 76%
